{"source": "paper PMC7269146", "about": "“Jingzhaotoxin-X, a gating modifier of Kv4.2 and Kv4.3 potassium channels purified from the venom of the Chinese tarantula Chilobrachys jingzhao” (The Journal of Venomous Animals and Toxins Including …, 2020)", "key": {"Kv2.1": {"tested_on": "Kv2.1", "assay": "microelectrode voltage-clamp, Xenopus laevis oocytes, Kv2.1", "format": "cell-based", "settings": "10 μM, 300-ms depolarization to +20 mV from -90 mV, pH 7.5, 19-23°C, n = 3", "description": "Briefly, plasmids were linearized, and transcription was carried out according to the standardized protocol. Afterwards, the capped cRNAs that encoded the related ion channels were prepared. To conduct transcription in vitro, firstly, NotL was utilized to linearize plasmids pCI that contained both Kv1.1 (Accession: NM_010595.3) and Kv2.1 (Accession: AF026005.1), whereas SphI was adopted to linearize plasmid PcDNA3 containing Kv1.2 (Accession: NM_012970.3) gene. […] Thereafter, the linearized plasmids were used as the templates to synthesize cRNAs in vitro using the large-scale T7 mMESSAGE mMACHINE transcription kit (Ambion, USA).\nA mature female X. laevis was placed on the ice for anesthesia, and then the Xenopus laevis oocytes at stage IV-VI were extracted. Subsequently, those extracted oocytes were treated by collagenase (1 mg/mL) contained within the calcium-depleted ND96 solution (containing 96 mM NaCl, 10 mM HEPES, 1 mM MgCl2, and 2 mM KCl) for defolliculation. […]\nFirstly, the effects of JZTX-X on the isoforms of potassium channels (including Kv1.1-1.3, Kv2.1, as well as Kv4.2-4.3) contained within the X. laevis oocytes were investigated through the microelectrode voltage-clamp approach. […] We also determined the effects of JZTX-X on Ito potassium channels in rat DRG neurons; those current amplitudes were inhibited by 54.4±6.8% when 500 nM JZTX-X was applied (Fig. 3K, n = 5)."}, "Kv4.2": {"target": "T1, Kv4.2 (Rattus norvegicus, UniProt Q63881)", "T1 construct": "expressed in transfected cells; host or cells: HEK293t", "T1 sequence (Q63881 1-630)": "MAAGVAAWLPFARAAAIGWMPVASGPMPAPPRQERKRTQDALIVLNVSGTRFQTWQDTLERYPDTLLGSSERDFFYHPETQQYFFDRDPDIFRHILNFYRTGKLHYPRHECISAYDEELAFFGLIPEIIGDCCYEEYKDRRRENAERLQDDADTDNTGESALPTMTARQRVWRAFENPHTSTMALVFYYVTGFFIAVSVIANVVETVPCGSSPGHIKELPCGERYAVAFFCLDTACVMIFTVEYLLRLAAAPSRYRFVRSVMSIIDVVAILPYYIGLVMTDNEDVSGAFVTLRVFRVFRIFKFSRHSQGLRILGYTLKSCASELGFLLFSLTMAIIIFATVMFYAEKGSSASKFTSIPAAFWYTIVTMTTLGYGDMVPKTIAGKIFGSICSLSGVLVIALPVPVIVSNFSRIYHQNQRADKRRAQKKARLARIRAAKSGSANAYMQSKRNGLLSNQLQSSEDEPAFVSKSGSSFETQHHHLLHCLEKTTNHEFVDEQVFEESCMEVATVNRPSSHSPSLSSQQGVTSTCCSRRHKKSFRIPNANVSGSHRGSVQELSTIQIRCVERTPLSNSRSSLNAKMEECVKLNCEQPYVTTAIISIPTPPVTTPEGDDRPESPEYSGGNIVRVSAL", "assay": "microelectrode voltage-clamp, Xenopus laevis oocytes, Kv4.2", "format": "cell-based", "settings": "+20 mV from -90 mV, n = 5, read-out: inhibition of Kv4.2 current", "source_text": "Rat cDNA genes encoding Kv4.2 (Accession: NM_031730.2) and Kv4.3 (Accession: AB003587.1) were subcloned to vector pcDNA3.1. In addition, human cDNA genes encoding Nav1.7 (Accession: DQ857292.1) and Nav1.5 (Accession: AB158469.2) were subcloned to vectors pcDNA3.1-mod and pcDNA3.1, separately. Then, Kv4.2, Kv4.3, Nav1.5 and Nav1.7 constructs were transiently transfected into the human embryonic kidney 293t (HEK293t) cells using lipofectamine 2000 (Invitrogen, USA) in accordance with manufacturer protocols. Thereafter, HEK293 cells were inoculated within Dulbecco’s modified Eagle’s medium (DMEM) containing 10% fetal bovine serum (FBS) at 5% CO2 and 37°C. The Kv4.3 channel and the Kv4.2 counterpart were then transfected in the absence of β subunit. Subsequently, cells were incubated with a DNA-lipofectamine mixture (one reporter plasmid for green fluorescence protein and channel constructs) for 4-6 h, and were washed with the fresh medium.\nBriefly, plasmids were linearized, and transcription was carried out according to the standardized protocol. Afterwards, the capped cRNAs that encoded the related ion channels were prepared. […]"}}, "note": "Where a SMILES comes first, the peptide text is derived from it. Bridges are numbered along the chain shown (N, C = ends).", "data": [{"smiles": "CC(C)C[C@@H]1NC(=O)[C@H](CCCCN)NC(=O)[C@H](Cc2ccc(O)cc2)NC(=O)[C@@H]2CSSC[C@@H]3NC(=O)[C@H](Cc4ccc(O)cc4)NC(=O)[C@H](Cc4ccccc4)NC(=O)CNC(=O)[C@H](C)NC(=O)[C@H](CSSC[C@H](NC(=O)[C@@H](N)CC(C)C)C(=O)N[C@@H](CO)C(=O)N[C@@H](CCCNC(=N)N)C(=O)N[C@@H](CCC(=O)O)C(=O)NCC(=O)N[C@@H](CCC(=O)O)C(=O)N[C@@H](Cc4ccccc4)C(=O)N2)NC(=O)[C@H](CSSC[C@@H](C(=O)N[C@@H](Cc2ccc(O)cc2)C(=O)N[C@@H](CCCNC(=N)N)C(=O)N[C@@H](CC(N)=O)C(=O)O)NC(=O)[C@H](Cc2c[nH]cn2)NC(=O)[C@H](CC(C)C)NC(=O)[C@H](C(C)C)NC(=O)[C@H](Cc2ccccc2)NC(=O)[C@H](C)NC(=O)[C@H](CCCCN)NC3=O)NC(=O)[C@H](CCCCN)NC(=O)[C@H](CCCNC(=N)N)NC1=O", "note": "[JZTX-X, Jingzhaotoxin-X] (H-LCSREGEFCYKLRKCCAGFYCKAFVLHCYRN-OH; disulfide 2-16, 9-21, 15-28; N-terminus assumed)", "values": [{"measurement": "inhibition of Kv2.1 current", "setting": "Kv2.1", "value": "less than 5%"}, {"measurement": "inhibition at 0.1 µM", "setting": "Kv4.2; 0.1 μM (100 nM)", "value": "57.8 ± 4.6", "unit": "%"}, {"measurement": "inhibition at 0.5 µM", "setting": "Kv4.2; 0.5 μM (500 nM)", "value": "83.8 ± 5.1", "unit": "%"}]}]}
